Test results published in patent US10766894B2, “Aza-indazole compounds for use in tendon and/or ligament injuries” (NOVARTIS AG, priority 2016, dated 2020).

The molecules below were run on mouse immortalized TT-D6 Scx-luciferase (ScxL) cell line; transcriptional activation of Scleraxis (Scx) gene (assay: SCX-LUC in vitro assay (scleraxis promoter luciferase reporter)). Conditions: Mus musculus, 96 h; Examples table; TT-D6 Scx-luciferase cells, 1 ng/ml TGFβ1, four days; read-out: Scx-Luc (EC50 μM).
Format: cell-based

Question: Which EC50 does the source give for Nc1n[nH]c2ccc(-c3ccc(S(=O)(=O)Nc4cccc(Cl)c4F)cc3Cl)nc12 [Example 52, 4-(3-amino-1H-pyrazolo[4,3-b]pyridin-5-yl)-3-chloro-N-(3-chloro-2-fluorophenyl)benzenesulfonamide] here?
Answer: 1.1 µM

Question: Nc1n[nH]c2ccc(-c3ccc(S(=O)(=O)N[C@H]4CC[C@@H](O)CC4)cc3Cl)nc12 [Example 48, 4-(3-amino-1H-pyrazolo[4,3-b]pyridin-5-yl)-3-chloro-N-((1s,4s)-4-hydroxycyclohexyl)benzenesulfonamide] was tested. Which EC50 did it give?
Answer: 2.02 µM

Question: How did the EC50 turn out when Nc1n[nH]c2ccc(-c3ccc(S(=O)(=O)N4CC5CCCC5C4)cc3Cl)nc12 (stereo not drawn) [Example 51, 5-(2-chloro-4-((hexahydrocyclopenta[c]pyrrol-2(1H)-yl)sulfonyl)phenyl)-1H-pyrazolo[4,3-b]pyridin-3-amine] was run?
Answer: 2.39 µM

Question: With Nc1n[nH]c2ccc(-c3ccc(NS(=O)(=O)[C@H]4CCCC[C@H]4O)cc3Cl)nc12 [Example 14, (1S,2R)—N-(4-(3-amino-1H-pyrazolo[4,3-b]pyridin-5-yl)-3-chlorophenyl)-2-hydroxycyclohexane-1-sulfonamide] as the molecule, how does the EC50 read?
Answer: 1.12 µM

Question: Which EC50 does the source give for Nc1n[nH]c2ccc(-c3ccc(NS(=O)(=O)c4ccc(F)c(F)c4)cc3Cl)nc12 [Example 10, N-(4-(3-amino-1H-pyrazolo[4,3-b]pyridin-5-yl)-3-chlorophenyl)-3,4-difluorobenzenesulfonamide] here?
Answer: 0.64 µM

Question: With Cc1cc(S(=O)(=O)N[C@@H]2CC[C@H](O)C2)ccc1-c1ccc2[nH]nc(N)c2n1 [Example 19, 4-(3-amino-1H-pyrazolo[4,3-b]pyridin-5-yl)-N-((1R,3S)-3-hydroxycyclopentyl)-3-methylbenzenesulfonamide] as the molecule, how does the EC50 read?
Answer: 1.7 µM

Question: With NC(=O)[C@H]1C[C@@H](F)CN1S(=O)(=O)c1ccc(-c2ccc3[nH]nc(N)c3n2)c(Cl)c1 [Example 55, (2R,4R)-1-((4-(3-amino-1H-pyrazolo[4,3-b]pyridin-5-yl)-3-chlorophenyl)sulfonyl)-4-fluoropyrrolidine-2-carboxamide] as the molecule, how does the EC50 read?
Answer: 6.16 µM

Question: How did the EC50 turn out when Nc1n[nH]c2ccc(-c3ccc(NS(=O)(=O)c4ccc(Cl)c(Cl)c4)cc3Cl)nc12 [Example 43, N-(4-(3-amino-1H-pyrazolo[4,3-b]pyridin-5-yl)-3-chlorophenyl)-3,4-dichlorobenzenesulfonamide] was run?
Answer: 3.31 µM

Question: With Nc1n[nH]c2ccc(-c3ccc(NS(=O)(=O)C4CCCCC4)cc3Cl)nc12 [Example 15, N-(4-(3-amino-1H-pyrazolo[4,3-b]pyridin-5-yl)-3-chlorophenyl)cyclohexanesulfonamide] as the molecule, how does the EC50 read?
Answer: 0.874 µM

Question: With Cc1cc(S(=O)(=O)N[C@H]2C[C@@H](CO)C2)ccc1-c1ccc2[nH]nc(N)c2n1 [Example 47, 4-(3-amino-1H-pyrazolo[4,3-b]pyridin-5-yl)-N-((1s,3s)-3-(hydroxymethyl)cyclobutyl)-3-methylbenzenesulfonamide] as the molecule, how does the EC50 read?
Answer: 5.34 µM

Question: With Cc1cc(S(=O)(=O)NC2CCCCC2)ccc1-c1ccc2[nH]nc(N)c2n1 [Example 39, 4-(3-amino-1H-pyrazolo[4,3-b]pyridin-5-yl)-N-cyclohexyl-3-methylbenzenesulfonamide] as the molecule, how does the EC50 read?
Answer: 0.473 µM

Question: With Nc1n[nH]c2ccc(-c3ccc(S(=O)(=O)N[C@H]4CCC[C@@H]4O)cc3Cl)nc12 [Example 94, 4-(3-amino-1H-pyrazolo[4,3-b]pyridin-5-yl)-3-chloro-N-((1S,2S)-2-hydroxycyclopentyl)benzenesulfonamide] as the molecule, how does the EC50 read?
Answer: 0.026 µM

Question: For Nc1n[nH]c2ccc(-c3ccc(S(=O)(=O)Nc4cccc(Cl)c4)cc3Cl)nc12 [Example 90, 4-(3-amino-1H-pyrazolo[4,3-b]pyridin-5-yl)-3-chloro-N-(3-chlorophenyl)benzenesulfonamide], which EC50 is on record?
Answer: 2.54 µM

Question: How did the EC50 turn out when Nc1n[nH]c2ccc(-c3ccc(S(=O)(=O)N4CC[C@@H](O)C4)cc3Cl)nc12 [Example 57, (R)-1-((4-(3-amino-1H-pyrazolo[4,3-b]pyridin-5-yl)-3-chlorophenyl)sulfonyl)pyrrolidin-3-ol] was run?
Answer: 0.633 µM

Question: How did the EC50 turn out when COc1ccc(S(=O)(=O)Nc2ccc(-c3ccc4[nH]nc(N)c4n3)c(Cl)c2)cc1OC [Example 79, N-(4-(3-amino-1H-pyrazolo[4,3-b]pyridin-5-yl)-3-chlorophenyl)-3,4-dimethoxybenzenesulfonamide] was run?
Answer: 0.061 µM

Question: With COc1cccc(S(=O)(=O)Nc2ccc(-c3ccc4[nH]nc(N)c4n3)c(Cl)c2)c1 [Example 67, N-(4-(3-amino-1H-pyrazolo[4,3-b]pyridin-5-yl)-3-chlorophenyl)-3-methoxybenzenesulfonamide] as the molecule, how does the EC50 read?
Answer: 2.32 µM

Question: Cc1cc(S(=O)(=O)N2CC(F)(F)C[C@H]2CO)ccc1-c1ccc2[nH]nc(N)c2n1 [Example 37, (S)-(1-((4-(3-amino-1H-pyrazolo[4,3-b]pyridin-5-yl)-3-methylphenyl)sulfonyl)-4,4-difluoropyrrolidin-2-yl)methanol] was tested. Which EC50 did it give?
Answer: 0.593 µM

Question: With Nc1n[nH]c2ccc(-c3ccc(S(=O)(=O)NC4(CO)CCCC4)cc3Cl)nc12 [Example 30, 4-(3-amino-1H-pyrazolo[4,3-b]pyridin-5-yl)-3-chloro-N-(1-(hydroxymethyl)cyclopentyl)benzenesulfonamide] as the molecule, how does the EC50 read?
Answer: 2.07 µM

Question: With Nc1n[nH]c2ccc(-c3ccc(NS(=O)(=O)c4ccc(F)c(Cl)c4)cc3Cl)nc12 [Example 27, N-(4-(3-amino-1H-pyrazolo[4,3-b]pyridin-5-yl)-3-chlorophenyl)-3-chloro-4-fluorobenzenesulfonamide] as the molecule, how does the EC50 read?
Answer: 1.08 µM

Question: Nc1n[nH]c2ccc(-c3ccc(NS(=O)(=O)C4CCCCC4O)cc3Cl)nc12 (stereo not drawn) [Example 17, N-(4-(3-amino-1H-pyrazolo[4,3-b]pyridin-5-yl)-3-chlorophenyl)-2-hydroxycyclohexane-1-sulfonamide] was tested. Which EC50 did it give?
Answer: 1.84 µM

Question: How did the EC50 turn out when Nc1n[nH]c2ccc(-c3ccc(S(=O)(=O)N[C@H]4C[C@@H](CO)C4)cc3Cl)nc12 [Example 85, 4-(3-amino-1H-pyrazolo[4,3-b]pyridin-5-yl)-3-chloro-N-((1s,3s)-3-(hydroxymethyl)cyclobutyl)benzenesulfonamide] was run?
Answer: 1.75 µM

Question: Cc1cc(S(=O)(=O)N[C@H]2C[C@@H](O)C2)ccc1-c1ccc2[nH]nc(N)c2n1 [Example 64, 4-(3-amino-1H-pyrazolo[4,3-b]pyridin-5-yl)-N-((1s,3s)-3-hydroxycyclobutyl)-3-methylbenzenesulfonamide] was tested. Which EC50 did it give?
Answer: 0.162 µM

Question: For Cc1cc(S(=O)(=O)NC2(CO)CCCC2)ccc1-c1ccc2[nH]nc(N)c2n1 [Example 26, 4-(3-amino-1H-pyrazolo[4,3-b]pyridin-5-yl)-N-(1-(hydroxymethyl)cyclopentyl)-3-methylbenzenesulfonamide], which EC50 is on record?
Answer: 0.811 µM

Question: For Nc1n[nH]c2ccc(-c3ccc(NS(=O)(=O)c4cccc(C(F)(F)F)c4)cc3Cl)nc12 [Example 62, N-(4-(3-amino-1H-pyrazolo[4,3-b]pyridin-5-yl)-3-chlorophenyl)-3-(trifluoromethyl)benzenesulfonamide], which EC50 is on record?
Answer: 1.3 µM

Same assay, conditions: Mus musculus, 96 h; Table 1; TT-D6 Scx-luciferase cells, 1 ng/ml TGFβ1, four days; read-out: Scx-Luc (EC50 uM)

Question: Which EC50 does the source give for C[C@@H](O)c1nc2cnc3[nH]ccc3c2n1[C@H]1CC[C@H](C#N)CC1 [reference compound] here?
Answer: 2.69 µM

Question: For CC1(C)CN(C(=O)c2ccc(-c3cccc4nc(NC(=O)C5CC5)nn34)cc2)C1 [reference compound], which EC50 is on record?
Answer: 1.42 µM

Same assay, conditions: further compounds not numbered as examples; read-out: EC50 in the Scx-Luc assay

Question: Which EC50 does the source give for Nc1n[nH]c2ccc(-c3ccc(S(=O)(=O)NC4CCC(O)(C(F)(F)F)CC4)cc3Cl)nc12 [4-(3-amino-1H-pyrazolo[4,3-b]pyridin-5-yl)-3-chloro-N-((1R,4R)-4-hydroxy-4-(trifluoromethyl)cyclohexyl)benzenesulfonamide] here?
Answer: > 10 µM
